Measured values: ChEMBL document CHEMBL3507680, “University of Dundee, Gates Library screen for HepG2 cell viability”

Assay: Human HepG2 cell viability assay in 384 well format
Type: toxicity, cell-based
Parameters: dose 125 nL, time 70.5 hour; cytotoxicity at 70.5 h: concentration not given beside the values
Details: HepG2 cells, read-out: Inhibition

COc1cc(-c2nc(N)n[nH]2)cc(OC)c1OC
cytotoxicity at 70.5 h: -8.57%

Cc1nc(Oc2ccccc2Cl)sc1C(=O)O
cytotoxicity at 70.5 h: -15.5%

O=C(O)CN1CCC(c2ccccc2)C1 (stereo not drawn)
cytotoxicity at 70.5 h: -13.6%

Cc1ccc(-c2nn(C)c(C(=O)O)c2Br)cc1
cytotoxicity at 70.5 h: -20.5%

O=C1Nc2ccccc2/C1=C1\CCCN1
cytotoxicity at 70.5 h: -1.25%

CC(=O)N1CC[C@@]2(O)CCCC[C@H]2[C@@H]1c1ccccc1
cytotoxicity at 70.5 h: -0.54%

COc1ccc2[nH]c3c(N(C)CC4OCCO4)ncnc3c2c1
cytotoxicity at 70.5 h: 5.81%

C/C(NC(=O)c1ccco1)=C1/C(=O)C[C@@H]2[C@H]1C2(C)C
cytotoxicity at 70.5 h: -6.66%

CC(=O)N1CC[C@@]2(O)CCCC[C@H]2[C@@H]1c1ccc2c(c1)OCO2
cytotoxicity at 70.5 h: -1.93%

CCC[C@]12CN3C[C@](CCC)(CN(C1)C3c1[nH]c(=O)[nH]c(=O)c1C)C2=O (stereo partly drawn)
cytotoxicity at 70.5 h: -10.7%

Cc1c(C2N3C[C@]4(C(C)C)CN2C[C@](C(C)C)(C3)C4=O)[nH]c(=O)[nH]c1=O (stereo partly drawn)
cytotoxicity at 70.5 h: -4.97%

CCC[C@]12CN3C[C@](C)(CN(C1)C3c1[nH]c(=O)[nH]c(=O)c1C)C2=O (stereo partly drawn)
cytotoxicity at 70.5 h: -9.33%

COc1ccc2c(ccn2CCC(=O)N[C@H](C(=O)O)C(C)C)c1
cytotoxicity at 70.5 h: -8.62%

O=C(CCC(=O)N1CCc2[nH]c3ccccc3c2C1)NCc1ccco1
cytotoxicity at 70.5 h: -8.42%

COc1ccc2c(ccn2CCC(=O)NCCC(=O)O)c1
cytotoxicity at 70.5 h: 4.49%

CCOc1c(C(N)=O)cn(C)c1-c1nc2cc(NC(C)=O)ccc2n1C
cytotoxicity at 70.5 h: -19.2%

CSCC[C@H](NC(=O)CCn1ccc2c(Br)cccc21)C(=O)O
cytotoxicity at 70.5 h: -16.3%

CC[C@@H](C)[C@H](NC(=O)CCn1cc(C(C)=O)c2ccccc21)C(=O)O
cytotoxicity at 70.5 h: -6.89%

CC(=O)c1cn(CCC(=O)NCCCC(=O)O)c2ccccc12
cytotoxicity at 70.5 h: -12.2%

Cc1occc(=O)c1OCC(=O)N1CCc2ccccc2C1
cytotoxicity at 70.5 h: 7.13%

CC(=O)c1cc2c(=O)[nH]c(=O)n(C)c2nc1C
cytotoxicity at 70.5 h: -9.65%

COc1cc2nc(C)n(CC(=O)NCCCO)c(=O)c2cc1OC
cytotoxicity at 70.5 h: -10.5%

COc1cc2nc(C)n(CC(=O)NCCC(C)C)c(=O)c2cc1OC
cytotoxicity at 70.5 h: -16.6%

O=C(NCCc1c[nH]cn1)c1n[nH]c2c1CCC2
cytotoxicity at 70.5 h: -8.54%

COCCn1ccc2cc(C(=O)NC3CCOC(C)(C)C3)ccc21 (stereo not drawn)
cytotoxicity at 70.5 h: -2.78%

COc1cc(OC)c(C2CC(=O)Oc3cc(C)[nH]c(=O)c32)cc1OC (stereo not drawn)
cytotoxicity at 70.5 h: -19.4%

COc1ccc(C2CC(=O)Oc3cc(C)[nH]c(=O)c32)c(OC)c1 (stereo not drawn)
cytotoxicity at 70.5 h: -19.2%

Cc1nc(CC(=O)N2CCCC(n3ccnc3C(C)C)C2)cs1 (stereo not drawn)
cytotoxicity at 70.5 h: -6.07%

CC(C)c1nccn1C1CCCN(C(=O)CCc2cnn(C)c2)C1 (stereo not drawn)
cytotoxicity at 70.5 h: -10.7%

CC(C)c1nccn1C1CCCN(C(=O)CCNS(C)(=O)=O)C1 (stereo not drawn)
cytotoxicity at 70.5 h: -6.32%

Cc1nn(C)c(Cl)c1C1CCCN1Cc1noc(C2CC2)n1 (stereo not drawn)
cytotoxicity at 70.5 h: -9.55%

O=C(NCc1ccco1)N1CCN(Cc2ccc3c(c2)CCO3)CC1
cytotoxicity at 70.5 h: -6.39%

Cc1nccc(-c2cccc(NCC(=O)N3CCOC(C)C3)c2)n1 (stereo not drawn)
cytotoxicity at 70.5 h: -3.45%

Cc1nccc(-c2cccc(NCC(=O)N3CCNC(=O)C3)c2)n1
cytotoxicity at 70.5 h: -5.62%

Cc1noc(NC(=O)c2ccccc2)n1
cytotoxicity at 70.5 h: -5.17%

Cc1nccc(-c2cccc(NCC(=O)NCC(=O)N3CCCC3)c2)n1
cytotoxicity at 70.5 h: -3.17%

Cc1ncsc1C(=O)NCCNc1ncccn1
cytotoxicity at 70.5 h: 13.7%

Cc1noc(C)c1CN(C)C(=O)c1ccc(C(N)=O)nc1
cytotoxicity at 70.5 h: -5.9%

COc1ccnc(N2CCN(C(=O)c3cccc(C#N)c3)CC2)n1
cytotoxicity at 70.5 h: -7.44%

CCc1nnc2n1CCN(C(=O)c1cc(C)n(-c3ccccc3)c1C)C2
cytotoxicity at 70.5 h: -4.27%

COc1ccc(CN(C)C(=O)NCc2c(C)cc(C)nc2OC)cc1
cytotoxicity at 70.5 h: -5.78%

Cc1nn(C)c(N(C)C)c1CNCc1ccc2c(c1)OCO2
cytotoxicity at 70.5 h: 29.5%

Cc1ccccc1C(C)NC(=O)CSCC#N (stereo not drawn)
cytotoxicity at 70.5 h: 12.8%

CCc1nc(C(=O)N2CCN(CC)CC2)nn1-c1ccccc1Cl
cytotoxicity at 70.5 h: 11.3%

CCc1nc(C(=O)N2CCN(C)CC2)nn1-c1ccccc1Cl
cytotoxicity at 70.5 h: 16.1%

CCc1noc(C)c1C(=O)N1CCCCC1Cn1cc(C)cn1 (stereo not drawn)
cytotoxicity at 70.5 h: 46.7%

c1ccc(-n2cc(CNCC3CCCN3c3cccnn3)cn2)cc1 (stereo not drawn)
cytotoxicity at 70.5 h: -5.35%

Cc1cnn(CC2CCCN2C(=O)c2c(C)noc2C)c1 (stereo not drawn)
cytotoxicity at 70.5 h: -11%

CC(C)c1nn(C)c(N(C)C)c1CNCc1ccc2c(c1)OCCO2
cytotoxicity at 70.5 h: -5.83%

O=C(CCc1ccsc1)Nc1cccnc1N1CCCC1
cytotoxicity at 70.5 h: -6.9%

CN(Cc1ccco1)C(=O)Nc1cccnc1N1CCCC1
cytotoxicity at 70.5 h: -3.81%

O=C(CCNC(=O)C1CCCC1)NCc1ccccc1Cn1ccnc1
cytotoxicity at 70.5 h: -8.37%

Cc1ncsc1C(=O)NC1CCN(CCC(=O)Nc2ccccc2)CC1
cytotoxicity at 70.5 h: -1.32%

OCCn1nccc1C1CCN(CCOc2ccc(Cl)cc2)CC1
cytotoxicity at 70.5 h: -1.15%

Cc1ccc(OCCN2CCC(c3ccnn3CCO)CC2)cc1
cytotoxicity at 70.5 h: 3.29%

OCCn1nccc1C1CCN(CCOc2ccccc2Cl)CC1
cytotoxicity at 70.5 h: -0.941%

OCCn1nccc1C1CCN(CCOc2ccccc2F)CC1
cytotoxicity at 70.5 h: -2.7%

COc1ccc(OCCN2CCC(c3ccnn3CCO)CC2)cc1
cytotoxicity at 70.5 h: -5.41%

CC(C)c1nn(C)c(N2CCOCC2)c1CNC(C)c1ccccn1 (stereo not drawn)
cytotoxicity at 70.5 h: -2.55%

Cc1cc(C)n(CC2CN(CCOc3ccccc3C#N)CCO2)n1 (stereo not drawn)
cytotoxicity at 70.5 h: -5.02%

N#Cc1cccc(OCCN2CCOC(Cn3cccn3)C2)c1 (stereo not drawn)
cytotoxicity at 70.5 h: -3.46%

Cc1nc(C(=O)N2CCCCC2)nn1-c1ccccc1Cl
cytotoxicity at 70.5 h: -7.71%

Cc1cnn(C2CCCN(C(=O)c3ccc(N4CCCC4)nn3)C2)c1 (stereo not drawn)
cytotoxicity at 70.5 h: 1.64%

O=C(CN1CCc2cncnc2C1)NCCOc1cccc(Cl)c1
cytotoxicity at 70.5 h: -4.17%

Cc1nn(CC(C)C)c(N(C)C)c1CNCc1ccc2c(c1)OCO2
cytotoxicity at 70.5 h: -2.13%

c1ccc(-n2nnnc2CNCC2CCCN2c2cccnn2)cc1 (stereo not drawn)
cytotoxicity at 70.5 h: -0.967%

CC(C)c1n[nH]c(C2CN(C(=O)c3cc(Cl)c[nH]3)CCO2)n1 (stereo not drawn)
cytotoxicity at 70.5 h: -8.73%

Cc1cc(C(=O)N2CCOC(c3nc(C(C)C)n[nH]3)C2)no1 (stereo not drawn)
cytotoxicity at 70.5 h: -11.9%

CC(Cn1cccn1)NCc1nc(-c2ccccn2)no1 (stereo not drawn)
cytotoxicity at 70.5 h: -11.1%

c1csc(-c2noc(CNCCn3cccn3)n2)c1
cytotoxicity at 70.5 h: -4.45%

COCc1nc(C(=O)N2CCCC(n3nc(C)cc3C)C2)cs1 (stereo not drawn)
cytotoxicity at 70.5 h: -8.71%

O=C(CCc1ccc(Cl)s1)NCc1nnc2n1CCCCC2
cytotoxicity at 70.5 h: -15.9%

Cc1cnc2c(S(=O)(=O)NC3CCS(=O)(=O)C3)cccc2c1 (stereo not drawn)
cytotoxicity at 70.5 h: -8.37%

O=C(NCCN1CCOCC1)c1scnc1Cl
cytotoxicity at 70.5 h: -15.1%

COc1ccnc(N2CCN(C(=O)N3CCOCC3)CC2)n1
cytotoxicity at 70.5 h: -10.7%

Cc1nc2ccnn2c(C)c1CCC(=O)N1CCSCC1
cytotoxicity at 70.5 h: -6.09%

CC1CN(CCOc2ccccc2C#N)CCN1Cc1nccn1C (stereo not drawn)
cytotoxicity at 70.5 h: -12.6%

Cn1ccnc1CN1CCN(CCOc2ccccc2F)CC1
cytotoxicity at 70.5 h: -11.2%

c1ncc2c(n1)CN(Cc1nc(-c3ccsc3)no1)CC2
cytotoxicity at 70.5 h: -14.7%

Cc1nc(C)n(CC2CCCN2Cc2cccc3c2OCCO3)n1 (stereo not drawn)
cytotoxicity at 70.5 h: -5.55%

CC(Cn1cccn1)NCc1nc(-c2ccccc2Cl)no1 (stereo not drawn)
cytotoxicity at 70.5 h: -19.9%

Cc1[nH]nc2ncc(C(=O)N3CCN(CC(C)O)CC3)cc12 (stereo not drawn)
cytotoxicity at 70.5 h: -5.99%

COc1ccc2c(ccn2CCCN)c1
cytotoxicity at 70.5 h: -7.17%
